Test results published in BindingDB's records for patent US9242996 (Novartis, 2016).

Target: Mitogen-activated protein kinase 1 (Homo sapiens, UniProt P28482)
Assay: Kinase Assay (New)
Settings: pH 7.5
Experimental: Compound dilution series are prepared in 100% DMSO. ERK2 is preincubated with compounds for 30 minutes at ambient temperature. Reaction is initiated by addition of a substrate cocktail of ERKtide peptide and ATP and is allowed to proceed for 2-3 hours at ambient temperature. […] Terminated reactions are read, after overnight incubation in the dark, on an EnVision Multilabel Plate Reader (PerkinElmer, Waltham, Mass.), with excitation and emission wavelengths set to 680 nm and 570 nm, respectively. IC50 values are determined using a four-parameter fit.

Mitogen-activated protein kinase 1, sequence (P28482 whole entry): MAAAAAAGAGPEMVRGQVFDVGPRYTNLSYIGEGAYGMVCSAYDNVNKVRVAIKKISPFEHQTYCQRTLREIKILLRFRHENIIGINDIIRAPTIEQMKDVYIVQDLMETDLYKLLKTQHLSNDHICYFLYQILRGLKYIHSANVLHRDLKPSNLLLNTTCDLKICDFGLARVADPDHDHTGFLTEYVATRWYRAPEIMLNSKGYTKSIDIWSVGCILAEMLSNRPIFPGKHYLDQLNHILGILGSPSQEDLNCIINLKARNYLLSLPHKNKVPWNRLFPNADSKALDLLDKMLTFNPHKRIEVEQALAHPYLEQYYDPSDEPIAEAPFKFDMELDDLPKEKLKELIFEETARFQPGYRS

- IC50: 7.33 nM
SMILES: Cc1nn(C)cc1-c1cnc(N)c(-c2ccc(C(=O)NCc3cccc(S(C)(=O)=O)c3)c(F)c2)n1 [US9242996, 145]
